Measurements as given in patent US5981541A, “Substituted heterocycles as anti-tumor agents” (Rutgers, The State University of New Jersey, priority 1997, dated 1999).
Read-outs that look alike come from different tables or passages of the source.

What was measured:
human topoisomerase I = target: T1, human topoisomerase I (Homo sapiens, UniProt P11387); assay: Topo I-mediated DNA cleavage assay; type: biochemical; conditions: concentration relative to camptothecin (CPT = 1) producing the same cleavage on plasmid DNA in the presence of human topoisomerase I
T1 construct: 15 amino acid fusion from pET-11a vector (N); made in house; host or cells: E. coli BL21(DE3)
T1 sequence (P11387 1-765): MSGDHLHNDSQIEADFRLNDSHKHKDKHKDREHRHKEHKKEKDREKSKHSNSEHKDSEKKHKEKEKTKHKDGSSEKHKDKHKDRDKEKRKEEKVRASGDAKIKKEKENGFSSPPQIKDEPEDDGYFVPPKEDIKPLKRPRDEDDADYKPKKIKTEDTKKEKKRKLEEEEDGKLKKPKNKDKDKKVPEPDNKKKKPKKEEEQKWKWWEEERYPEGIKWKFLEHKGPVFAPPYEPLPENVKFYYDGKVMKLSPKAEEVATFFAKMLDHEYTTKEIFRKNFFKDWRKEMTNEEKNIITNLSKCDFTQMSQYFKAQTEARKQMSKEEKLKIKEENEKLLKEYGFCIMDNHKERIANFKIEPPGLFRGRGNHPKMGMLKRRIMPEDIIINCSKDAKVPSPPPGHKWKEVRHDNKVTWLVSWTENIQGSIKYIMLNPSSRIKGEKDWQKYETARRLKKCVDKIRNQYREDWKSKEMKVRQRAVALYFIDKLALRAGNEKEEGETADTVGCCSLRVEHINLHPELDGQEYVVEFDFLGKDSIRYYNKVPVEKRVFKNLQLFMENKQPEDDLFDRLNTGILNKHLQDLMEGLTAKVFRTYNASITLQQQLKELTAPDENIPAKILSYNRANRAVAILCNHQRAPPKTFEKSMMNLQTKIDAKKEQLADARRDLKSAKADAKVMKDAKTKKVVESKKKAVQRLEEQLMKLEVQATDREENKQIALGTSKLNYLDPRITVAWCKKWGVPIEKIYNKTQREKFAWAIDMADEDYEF
From the text: To obtain large quantity of human topoisomerase I, the human topoisomerase I cDNA was cloned into the pET-11a vector, in which transcription of the cDNA is under the control of the inducible T7 promoter (Studier et al., Methods in Enzymol., Vol. 185:60-89, San Diego: Academic Press (1990)). Briefly, a 3.4 kb DNA fragment containing the entire coding sequence of human topoisomerase I and approximately 1 kb of untranslated region downstream of the stop codon was isolated from the plasmid YCpGAL1-hTOP1 (Bjornsti et al., Cancer Res. 49:6318-6323 (1989)) by cutting at the BamHI and EcoRI sites. The vector pET-11a was cut with the same restriction enzymes, dephosphorylated and ligated to the insert in the proper reading frame downstream of the vector cloning site. […] Since the translational start in pET is positioned at an upstream NdeI site, the expressed topoisomerase I has a 15 amino acid fusion at its N-terminus. pET1B was then transformed into E. coli BL21 (DE3), and, upon induction with 0.4 mM IPTG for 1 hour, the bacterial lysate was analyzed by 10% SDS-PAGE. […] Briefly, E. coli cells were lysed by repeated sonic bursts. The sonic extract was made in 1 M NaCl and 6% polyethylene glycol (PEG) to remove nucleic acids. The PEG supernatant was chromatographed directly on a hydroxyapatite column. […] The eluted enzyme was dialyzed against 50% glycerol, 30 mM potassium phosphate (pH 7.0), 1 mM dithiothreitol (DTT) and 0.1 mM EDTA and stored at -20° C.
(§1) Cleavage assays for the recombinant topoisomerases I and calf thymus topoisomerases I and II were done as described (Liu et al., J. Biol. Chem. 258:15365-15370 (1983)). The plasmid YEpG DNA used for the cleavage assays was prepared and labeled at its 3'-end using the published procedures.

[1] = target: T2, calf thymus topoisomerase II (Bos taurus, UniProt F1MDU7); assay: Topo II-mediated DNA cleavage assay; type: biochemical; conditions: concentration relative to VM26 (= 1) producing the same cleavage on plasmid DNA in the presence of calf thymus topoisomerase II
T2 construct: from tissue; host or cells: calf thymus glands
From the text: The plasmid pET11a and the E. coli strain BL21(DE3) used for enzyme expression were purchased from Novagen. IPTG was purchased from Sigma. The ECL system used for the Western blotting analysis of bacterial lysates was from Amersham (UK). All the restriction enzymes and Vent polymerase were from New England Biolabs. Mammalian topoisomerase II was isolated from calf thymus glands according to the published procedure (Halligan et al., J. Biol. Chem. 260:2475-2482 (1985)). The single copy yeast plasmids YCpGAL1 expressing various topoisomerase I genes in JN2-134 yeast strain were a kind gift of Dr. M-A. Bjornsti (Thomas Jefferson University, Philadelphia, Pa.). All bacterial and yeast media were from Difco (Detroit, Mich.), while cell culture media were purchased from Gibco-BRL (Gaithersburg, Md.).
as §1

[2] = tested on: Human lymphoblast RPMI 8402 cells; assay: MTT-microtiter plate tetrazolinium cytotoxicity assay (MTA), RPMI 8402; type: cell-based; conditions: Homo sapiens, read-out: Cytotoxicity IC50, RPMI
Procedure: (§2) The IC50 of the drugs tested were determined by the MTT-microtiter plate tetrazolinium cytotoxicity assay (MTA) (Mosmann, T., J. Immunol. Methods 65:55-63 (1983); Denizot et al., J. Immunol. Methods 89:271-277 (1986)). Human lymphoblast RPMI 8402 cells and their camptothecin-resistant CPT-K5 cells (Andoh et al., Proc. Natl. Acad. Sci., USA 84:5565-5569 (1987)) were kindly provided by Dr. Toshiwo Andoh (Aichi Cancer Center Research Institute, Nagoya, Japan). The cell lines A2780 and its camptothecin-resistant derivative CPT-2000 were a generous gift of Dr. Jaulang Hwang (Institute of Molecular Biology, Academia sinica, Taiwan). Cells (2000 cells/well, seeded in […] growth medium) were grown in suspension at 37° C. in 5% CO2 and maintained by regular passage in RPMI medium supplemented with 10% heat inactivated fetal bovine serum, L-glutamine (2 mM), penicillin (100 U/mi), and streptomycin (0.1 mg/ml). The cells were exposed continuously for 4 days to drug concentrations ranging from 100 ug/ml to 1.0 ng/ml in ten fold dilutions, and assayed at the end of the fourth day. Each concentration and the no drug control were repeated at least twice in 6 replica wells. The results were plotted and the IC50 then measured. The drug sensitive human epidermoid carcinoma KB 3-1 cell line and its vinblastine-selected multidrug-resistant variant KB-V1 cells (Akiyama et al., Genetics 11:117-126 (1985)) were kindly provided by Dr. Michael Gottesmann (National Cancer Institute). They were grown as monolayer cultures at 37° C. in 5% CO2 and maintained by regular passage in Dulbecco's minimal essential medium supplemented with 10% heat inactivated fetal bovine serum. KB-V1 cells were maintained in the presence of […] vinblastine.

[3] = tested on: camptothecin-resistant CPT-K5 cells; assay: MTT-microtiter plate tetrazolinium cytotoxicity assay (MTA), CPT-K5; type: cell-based, human; conditions: Homo sapiens, read-out: Cytotoxicity IC50, CPT-K5
Procedure: as §2

T2 sequence (F1MDU7 1-1532): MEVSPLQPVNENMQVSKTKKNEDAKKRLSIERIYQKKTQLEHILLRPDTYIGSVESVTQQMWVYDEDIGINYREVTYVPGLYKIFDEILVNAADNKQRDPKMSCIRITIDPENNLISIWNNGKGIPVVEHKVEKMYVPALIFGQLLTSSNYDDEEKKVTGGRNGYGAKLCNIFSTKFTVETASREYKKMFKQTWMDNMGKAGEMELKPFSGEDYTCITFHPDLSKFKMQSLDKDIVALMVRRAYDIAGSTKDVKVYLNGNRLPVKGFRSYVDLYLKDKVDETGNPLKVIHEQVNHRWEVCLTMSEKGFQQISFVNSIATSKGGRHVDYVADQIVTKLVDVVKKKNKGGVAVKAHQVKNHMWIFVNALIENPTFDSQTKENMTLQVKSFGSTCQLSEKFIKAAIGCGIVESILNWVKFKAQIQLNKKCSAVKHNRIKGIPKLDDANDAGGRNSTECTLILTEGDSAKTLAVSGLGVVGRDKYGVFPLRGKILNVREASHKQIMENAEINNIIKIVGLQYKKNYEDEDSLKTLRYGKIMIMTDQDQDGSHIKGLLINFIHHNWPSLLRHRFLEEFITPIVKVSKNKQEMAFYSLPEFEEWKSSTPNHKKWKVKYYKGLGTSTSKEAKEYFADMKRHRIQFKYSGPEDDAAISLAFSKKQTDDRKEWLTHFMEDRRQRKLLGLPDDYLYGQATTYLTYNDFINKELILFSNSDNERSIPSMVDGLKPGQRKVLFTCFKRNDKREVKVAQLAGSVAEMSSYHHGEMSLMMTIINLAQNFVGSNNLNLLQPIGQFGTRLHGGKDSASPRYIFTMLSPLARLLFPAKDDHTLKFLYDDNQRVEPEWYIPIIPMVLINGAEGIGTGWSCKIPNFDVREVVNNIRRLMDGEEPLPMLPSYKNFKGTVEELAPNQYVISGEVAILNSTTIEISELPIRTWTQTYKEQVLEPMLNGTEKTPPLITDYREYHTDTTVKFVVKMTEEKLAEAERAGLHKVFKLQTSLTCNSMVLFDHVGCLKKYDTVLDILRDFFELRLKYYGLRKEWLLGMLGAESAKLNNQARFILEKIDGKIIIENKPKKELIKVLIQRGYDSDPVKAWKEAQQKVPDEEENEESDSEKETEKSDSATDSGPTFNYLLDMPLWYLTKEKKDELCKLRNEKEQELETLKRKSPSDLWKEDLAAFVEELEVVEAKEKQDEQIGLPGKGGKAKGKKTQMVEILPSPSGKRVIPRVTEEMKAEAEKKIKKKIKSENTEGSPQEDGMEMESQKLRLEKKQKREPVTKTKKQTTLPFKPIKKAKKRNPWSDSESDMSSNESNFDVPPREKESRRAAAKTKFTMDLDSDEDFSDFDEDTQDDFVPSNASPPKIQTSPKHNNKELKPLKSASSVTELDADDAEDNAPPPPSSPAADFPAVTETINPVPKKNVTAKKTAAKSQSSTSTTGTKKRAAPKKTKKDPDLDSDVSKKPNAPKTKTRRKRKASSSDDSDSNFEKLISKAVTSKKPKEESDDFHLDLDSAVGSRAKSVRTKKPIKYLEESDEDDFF

Topo I-mediated DNA cleavage (REC, Relative Effective Concentration) (human topoisomerase I)	Topo II-mediated DNA cleavage (REC, Relative Effective Concentration) [1]	SMILES	IC50 ([2]; RPMI 8402, 96 h) [µM]	IC50 ([3]; CPT-K5, 96 h) [µM]	IC50 ([2]; 96 h, RPMI 8402 cells, 4 days of continuous drug exposure) [µM]	IC50 ([3]; 96 h, camptothecin-resistant CPT-K5 cells, 4 days of continuous drug exposure) [µM]
> 1000	> 1000	COc1cc2cc3c(ccc4ccccc43)nc2cc1OC [Compound 14c, 9,10-Dimethoxybenz[a]acridine]	10.4	31.1		
1000	> 1000	COc1cc2ccc3nc4ccccc4cc3c2cc1OC [Compound 14d, 2,3-Dimethoxy-benz[a]acridine]	10.4	13.8		
100	> 1000	Oc1cc2cc3c(ccc4cc(O)c(O)cc43)nc2cc1O [Compound 14g, 2,3,9,10-tetrahydroxybenz[a]acridine]	17.1	> 34		
1000	> 1000	COc1cc2cc3c(ccc4cc(Cl)ccc43)nc2cc1OC [Compound 14j, 3-Chloro-9,10-dimethoxybenz[a]acridine]	> 31	> 31		
100	> 1000	COc1cc2c(cc1OC)-c1cc3cc(OC)c(OC)cc3[n+](C)c1CC2 [Compound 15a, 2,3,9,10-Tetramethoxy-7-methyl-5,6-dihydrobenz[a]acridinium methosulfate]	> 24	> 24		
100	> 1000	COc1cc2cc3c(nc2cc1OC)CCc1ccc(N)cc1-3 [Compound 20, 2-Amino-9,10-dimethoxy-5,6-dihydrobenz[a]acridine]	16.3	> 33		
1	> 1000	COc1cc2cc3c4cc(OC)c(OC)cc4cc[n+]3c(C)c2cc1OC [Coralyne, reference compound]	4.9	20		
0.1	5	COc1cc2c[n+](C)c3c4cc5c(cc4ccc3c2cc1OC)OCO5 [Nitidine, reference compound]	0.4	3.9		

SMILES	Topo I-mediated DNA cleavage (REC, Relative Effective Concentration) (human topoisomerase I)	Topo II-mediated DNA cleavage (REC, Relative Effective Concentration) [1]	IC50 ([2]; RPMI 8402, 96 h) [µM]	IC50 ([3]; CPT-K5, 96 h) [µM]	IC50 ([2]; 96 h, RPMI 8402 cells, 4 days of continuous drug exposure) [µM]	IC50 ([3]; 96 h, camptothecin-resistant CPT-K5 cells, 4 days of continuous drug exposure) [µM]
COc1cc2ccc3c(cc4cc(OC)c(OC)cc4[n+]3C)c2cc1OC [Compound 16a, 2,3,9,10-Tetramethoxy-7-methylbenz[a]acridinium methosulfate]	> 1000	> 1000			25.3	23.2
